{
  "source": "patent US20100130549A1",
  "about": "“PSYCHOTROPIC COMPOUNDS, COMPOSITIONS AND METHODS OF USE” (priority 2007, published 2010)",
  "key": {"Adrenergic α2A": {"target": "T1, Adrenergic α2A (Homo sapiens, UniProt P08913)", "T1 construct": "203620", "T1 sequence (P08913 1-465)": "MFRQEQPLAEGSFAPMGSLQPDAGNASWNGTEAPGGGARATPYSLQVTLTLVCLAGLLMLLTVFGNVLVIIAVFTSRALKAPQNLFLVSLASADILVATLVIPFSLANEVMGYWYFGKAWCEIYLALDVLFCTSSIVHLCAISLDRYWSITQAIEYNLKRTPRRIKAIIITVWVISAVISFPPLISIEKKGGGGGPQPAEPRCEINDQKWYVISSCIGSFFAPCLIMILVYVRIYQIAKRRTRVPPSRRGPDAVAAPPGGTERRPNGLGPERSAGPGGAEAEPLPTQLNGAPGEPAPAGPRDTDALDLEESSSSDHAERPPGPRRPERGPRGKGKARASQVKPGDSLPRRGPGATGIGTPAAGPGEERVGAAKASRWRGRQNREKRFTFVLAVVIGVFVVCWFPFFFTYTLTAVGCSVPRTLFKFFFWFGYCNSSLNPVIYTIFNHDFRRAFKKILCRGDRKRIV", "test": "Radioligand binding assay, Adrenergic α2A", "description": "(§1) . Table 1 provides data produced via a receptor binding assay and IC50 and Ki determination. […] In addition, the compound of formula (Ia) has a potent DAT inhibition, which is indicative of dopaminergic uptake inhibition and increased DA activity. In addition to the effect on SERT and DAT, the compound of formula (Ia) inhibited the transporter of Norepinephrine (NET), and several neurotransmitter's receptors like alpha2A and alpha2C receptors, alpha 1A and alphal C, 5HT2A and 5HT2C, signal histamine2 and dopamine D1. This specific profile is in line with the data on antidepressant, anxiolytic and moderate neuro-stimulation activity observed in the animal model studies.\n(§2) With regard to the data provided in Table 1, the biochemical assay results are presented as the percent inhibition of specific binding or activity throughout the report. For primary assays, only the lowest concentration with a significant response judged by the assays’ criteria, is shown in this summary. […] Unless otherwise requested, primary screening in duplicate with quantitative data (e.g., IC50±SEM, Ki±SEM and nH) are shown."}, "BALBc male mice": {"tested_on": "BALBc male mice", "test": "Hot plate test", "assay_type": "in vivo", "conditions": "10 mg/kg orally (sertraline equimolar)", "description": "The hot-plate test is widely used to measure pain sensation. The latency in response to heat of mice and rats feet is based on the method described by Eddy et al., Synthetic analgesics. II. […] The method is based on placing an animal on heated (52-56 C) surface and measuring the time to response (raising paw, licking of the paw, jumping or running.\nThe animals were followed for 6 hr."}, "BALB/c mice [1]": {"tested_on": "BALB/c mice", "test": "Elevated plus maze", "conditions": "10 mg/kg (equimolar) ip 1 hr prior", "quoted_text": "The apparatus is made of wood and painted black, with two opposing open arms and two opposite enclosed arms of the same size. The arms are attached to a central square shaped in a plus sign. The whole apparatus is placed 50 cm above the floor. Anxious animals refrain from entry to the open arm and prefer the closed arm.\nThe data is presented as the mean±SEM of 12 animals."}, "[2]": {"target": "Serotonin (5-Hydroxytryptamine) 5-HT6 (Homo sapiens, UniProt P50406)", "sequence (P50406 whole entry)": "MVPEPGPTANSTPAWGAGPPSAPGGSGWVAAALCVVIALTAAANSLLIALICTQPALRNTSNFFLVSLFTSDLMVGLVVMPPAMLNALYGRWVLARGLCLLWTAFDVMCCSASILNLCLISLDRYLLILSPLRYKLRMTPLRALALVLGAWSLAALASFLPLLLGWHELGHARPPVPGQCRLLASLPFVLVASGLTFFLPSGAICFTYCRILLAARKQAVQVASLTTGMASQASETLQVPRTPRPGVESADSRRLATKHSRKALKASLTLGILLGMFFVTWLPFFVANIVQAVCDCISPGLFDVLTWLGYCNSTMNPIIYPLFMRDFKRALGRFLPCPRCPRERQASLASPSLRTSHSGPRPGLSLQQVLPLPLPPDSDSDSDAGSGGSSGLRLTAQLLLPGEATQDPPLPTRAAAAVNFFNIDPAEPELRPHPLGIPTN", "test": "Radioligand binding assay, 5-HT6", "description": "as §1, §2"}, "[3]": {"target": "Serotonin (5-Hydroxytryptamine) 5-HT2A (Homo sapiens, UniProt P28223)", "sequence (P28223 whole entry)": "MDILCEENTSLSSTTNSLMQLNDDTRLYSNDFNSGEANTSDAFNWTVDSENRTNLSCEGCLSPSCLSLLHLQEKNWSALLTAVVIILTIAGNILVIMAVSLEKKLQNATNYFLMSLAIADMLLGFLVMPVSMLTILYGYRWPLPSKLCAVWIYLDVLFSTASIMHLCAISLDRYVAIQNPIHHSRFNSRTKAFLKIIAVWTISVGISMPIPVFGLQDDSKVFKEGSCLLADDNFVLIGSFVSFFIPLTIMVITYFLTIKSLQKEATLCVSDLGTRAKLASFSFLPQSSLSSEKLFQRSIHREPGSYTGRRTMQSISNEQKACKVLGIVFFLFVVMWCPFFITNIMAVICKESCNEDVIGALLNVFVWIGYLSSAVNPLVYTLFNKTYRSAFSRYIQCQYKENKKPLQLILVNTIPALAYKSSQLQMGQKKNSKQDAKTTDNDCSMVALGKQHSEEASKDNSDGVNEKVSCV", "test": "Radioligand binding assay, 5-HT2A", "description": "as §1, §2"}, "BALB/c mice [4]": {"tested_on": "BALB/c mice", "test": "Rotor rod test (motor activity)", "assay_type": "in vivo", "conditions": "10 mg/kg p.o., 90 min after administration; vs controls", "description": "The test was performed 90 min after oral administration of the compounds. […] The rotor rod test involves placing the mouse on an elevated rotating bar. In this test, the mouse is placed on the bar such that it is facing the direction opposite to the rotation of the rod. The time lag to fall is determined."}, "Adrenergic α1D": {"target": "T2, Adrenergic α1D (Homo sapiens, UniProt P25100)", "T2 sequence (P25100 1-572)": "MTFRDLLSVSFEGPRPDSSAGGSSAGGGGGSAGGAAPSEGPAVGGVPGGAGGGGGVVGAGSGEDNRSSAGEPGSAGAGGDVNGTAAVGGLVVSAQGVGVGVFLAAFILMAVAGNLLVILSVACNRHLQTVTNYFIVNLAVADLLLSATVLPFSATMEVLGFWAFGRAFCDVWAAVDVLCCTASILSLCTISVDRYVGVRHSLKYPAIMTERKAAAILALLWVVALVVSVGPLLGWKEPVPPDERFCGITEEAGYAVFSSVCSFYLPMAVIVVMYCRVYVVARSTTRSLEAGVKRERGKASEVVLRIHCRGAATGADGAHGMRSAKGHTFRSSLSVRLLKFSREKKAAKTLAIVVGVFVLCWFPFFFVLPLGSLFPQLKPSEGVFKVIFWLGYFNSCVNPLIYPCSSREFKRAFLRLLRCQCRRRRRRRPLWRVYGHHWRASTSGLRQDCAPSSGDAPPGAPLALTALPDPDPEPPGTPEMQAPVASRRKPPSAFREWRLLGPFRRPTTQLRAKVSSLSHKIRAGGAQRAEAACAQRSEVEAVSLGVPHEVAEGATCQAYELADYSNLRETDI", "test": "Radioligand binding assay, Adrenergic α1D", "description": "as §1, §2"}, "[5]": {"target": "Transporter, Serotonin (5-Hydroxytryptamine) (SERT) (Homo sapiens, UniProt P31645)", "sequence (P31645 whole entry)": "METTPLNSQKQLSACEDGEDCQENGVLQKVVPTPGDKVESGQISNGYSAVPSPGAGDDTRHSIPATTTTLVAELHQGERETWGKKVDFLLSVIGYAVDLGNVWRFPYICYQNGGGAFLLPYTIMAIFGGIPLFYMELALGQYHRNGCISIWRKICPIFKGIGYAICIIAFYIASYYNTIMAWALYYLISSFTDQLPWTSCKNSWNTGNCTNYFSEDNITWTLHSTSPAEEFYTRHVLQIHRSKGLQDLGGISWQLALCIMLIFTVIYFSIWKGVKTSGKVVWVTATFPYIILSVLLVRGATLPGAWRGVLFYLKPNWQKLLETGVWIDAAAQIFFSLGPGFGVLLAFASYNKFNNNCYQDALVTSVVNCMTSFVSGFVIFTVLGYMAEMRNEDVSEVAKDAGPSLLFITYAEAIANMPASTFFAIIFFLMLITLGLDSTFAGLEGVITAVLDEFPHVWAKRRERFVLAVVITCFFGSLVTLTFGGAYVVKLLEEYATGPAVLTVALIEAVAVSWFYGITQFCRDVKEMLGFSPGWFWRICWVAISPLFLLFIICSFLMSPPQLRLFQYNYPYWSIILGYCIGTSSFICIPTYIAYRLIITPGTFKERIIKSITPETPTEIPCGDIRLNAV", "test": "Radioligand binding assay, Serotonin transporter", "description": "as §2"}, "SHSY5Y cell-line": {"tested_on": "SHSY5Y cell-line", "test": "Cell viability, neutral red method", "quoted_text": "Each point is the mean of a triplicate using the neutral red method for cell viability."}, "[6]": {"target": "Transporter, Norepinephrine (NET) (Homo sapiens, UniProt P23975)", "sequence (P23975 whole entry)": "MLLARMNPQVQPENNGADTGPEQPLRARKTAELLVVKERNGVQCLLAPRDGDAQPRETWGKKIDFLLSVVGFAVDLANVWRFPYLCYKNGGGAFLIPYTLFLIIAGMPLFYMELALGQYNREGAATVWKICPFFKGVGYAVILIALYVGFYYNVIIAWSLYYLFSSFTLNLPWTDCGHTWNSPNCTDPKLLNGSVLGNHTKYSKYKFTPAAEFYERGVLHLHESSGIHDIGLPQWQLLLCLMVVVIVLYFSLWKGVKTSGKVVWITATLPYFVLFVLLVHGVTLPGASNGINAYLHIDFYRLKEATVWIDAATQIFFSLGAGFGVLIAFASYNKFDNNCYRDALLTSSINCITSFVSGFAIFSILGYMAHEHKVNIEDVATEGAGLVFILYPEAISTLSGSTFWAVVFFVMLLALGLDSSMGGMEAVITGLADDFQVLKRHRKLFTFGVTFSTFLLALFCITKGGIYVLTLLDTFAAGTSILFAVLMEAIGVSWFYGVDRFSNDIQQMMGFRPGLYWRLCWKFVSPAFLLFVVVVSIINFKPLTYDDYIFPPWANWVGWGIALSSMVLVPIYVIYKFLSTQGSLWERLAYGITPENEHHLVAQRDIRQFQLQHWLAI", "test": "Radioligand binding assay, Norepinephrine transporter", "description": "as §1, §2"}},
  "note": "Values joined by “and” are separate entries in the source; they are usually repeats but may differ in a detail not shown here. Equal entries are not always repeated.",
  "data": [
    {"compound": "CN[C@H]1CC[C@@H](c2ccc(Cl)c(Cl)c2)c2ccc(C#CCCCO)cc21", "note": "[compound Ia, (1S-cis)-4-(3,4-dichlorophenyl)-7-(5-hydroxy-1-pentyn-1-yl)-1,2,3,4-tetrahydro-N-methyl-1-naphthalenamine hydroiodide]", "values": [
      {"measurement": "IC50", "setting": "Adrenergic α2A", "result": 273, "unit": "nM"},
      {"measurement": "nH", "setting": "Adrenergic α2A", "result": 0.930},
      {"measurement": "inhibition at 1 µM", "setting": "Adrenergic α2A; 1 μM", "result": 82, "unit": "%"},
      {"measurement": "Ki", "setting": "Adrenergic α2A; read-out: K1", "result": 102, "unit": "nM"},
      {"measurement": "time after drug administration with significant effect on reaction to heating", "setting": "BALBc male mice; followed for 6 hr, hydroiodide", "result": "120 min and 240 min"},
      {"measurement": "latency to heat sensation", "setting": "BALBc male mice; vs vehicle treated control", "result": "significantly increase"},
      {"measurement": "anti-anxiety effect", "setting": "BALB/c mice [1]", "result": "significant anti-anxiety effect"},
      {"measurement": "IC50", "setting": "[2]", "result": 2600, "unit": "nM"},
      {"measurement": "nH", "setting": "[2]", "result": 1.16},
      {"measurement": "inhibition at 3 µM", "setting": "[2]; 3 μM", "result": 51, "unit": "%"},
      {"measurement": "Ki", "setting": "[2]; read-out: K1", "result": 1210, "unit": "nM"},
      {"measurement": "IC50", "setting": "[3]", "result": 3370, "unit": "nM"},
      {"measurement": "nH", "setting": "[3]", "result": 1.06},
      {"measurement": "inhibition at 10 µM", "setting": "[3]; read-out: % INH.", "result": 81, "unit": "%"},
      {"measurement": "Ki", "setting": "[3]; read-out: K1", "result": 965, "unit": "nM"},
      {"measurement": "muscle strength and basic motor activity", "setting": "BALB/c mice [4]", "result": "did not modify"},
      {"measurement": "IC50", "setting": "Adrenergic α1D", "result": 2500, "unit": "nM"},
      {"measurement": "nH", "setting": "Adrenergic α1D", "result": 1.04},
      {"measurement": "inhibition at 3 µM", "setting": "Adrenergic α1D; 3 μM", "result": 54, "unit": "%"},
      {"measurement": "Ki", "setting": "Adrenergic α1D; read-out: K1", "result": 1230, "unit": "nM"},
      {"measurement": "IC50", "setting": "[5]", "result": "< 300", "unit": "nM"},
      {"measurement": "inhibition at 0.03 µM", "setting": "[5]; 0.03 μM", "result": 86, "unit": "%"},
      {"measurement": "Ki", "setting": "[5]; read-out: SERT final Ki", "result": 1.09, "unit": "nM"},
      {"measurement": "increase in cell viability compared to control vehicle treated cells", "setting": "SHSY5Y cell-line; 1-5 μM, 24 and 48 hours incubation", "result": "13-25%"},
      {"measurement": "effect on cell viability over concentration range", "setting": "SHSY5Y cell-line; 1-50 μM, low concentrations neurotrophic, high concentrations apoptosis", "result": "biphasic effects"},
      {"measurement": "concentration of maximal neurotropic activity", "setting": "SHSY5Y cell-line; concentration range 1-50 μM", "result": 1, "unit": "µM"},
      {"measurement": "IC50", "setting": "[6]", "result": 623, "unit": "nM"},
      {"measurement": "nH", "setting": "[6]", "result": 0.977},
      {"measurement": "inhibition at 1 µM", "setting": "[6]; 1 μM", "result": 62, "unit": "%"},
      {"measurement": "Ki", "setting": "[6]; read-out: K1", "result": 618, "unit": "nM"}
    ]}
  ]
}
